Each block holds one molecule with its values, some of them ahead of it.
Columns and labels:
LXR-α = molecular target: T1, LXR-α (Homo sapiens, UniProt Q13133); assay: LanthaScreen TR-FRET LXR alpha Coactivator binding assay; settings: EC50 (AC50) from fitted curve, read-out: binding affinity for LXR-α
T1 construct: purchased Life Technologies PV4655
T1 sequence (Q13133 209-447 limits assumed): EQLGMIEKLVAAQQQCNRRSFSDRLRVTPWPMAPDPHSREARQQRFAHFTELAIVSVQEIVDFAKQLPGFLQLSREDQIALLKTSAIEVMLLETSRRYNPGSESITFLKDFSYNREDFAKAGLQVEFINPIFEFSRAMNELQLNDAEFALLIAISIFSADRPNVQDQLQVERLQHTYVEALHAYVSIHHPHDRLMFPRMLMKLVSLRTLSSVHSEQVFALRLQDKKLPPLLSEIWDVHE

LXR-β = molecular target: T2, LXR-β (Homo sapiens, UniProt P55055); assay: LanthaScreen TR-FRET LXR beta Coactivator binding assay; settings: EC50 (AC50) from fitted curve, read-out: binding affinity for LXR-β
T2 construct: purchased Life Technologies PV4658
T2 sequence (P55055 222-460 limits assumed): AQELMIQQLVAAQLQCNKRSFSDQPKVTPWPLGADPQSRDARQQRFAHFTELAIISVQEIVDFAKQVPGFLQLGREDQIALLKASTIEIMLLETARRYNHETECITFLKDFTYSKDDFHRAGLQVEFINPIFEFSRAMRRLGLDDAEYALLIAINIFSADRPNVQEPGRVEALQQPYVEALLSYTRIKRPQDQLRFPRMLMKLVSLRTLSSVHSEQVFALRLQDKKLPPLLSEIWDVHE

[1] = tested on: LXR-α transcriptional response element; assay: In vitro LXR transactivation (luciferase reporter) assay in THP-1 cells; format: cell-based; settings: Homo sapiens, 24 hours, read-out: EC50 (LXR agonist activity)
Method: (§1) Next, the in vitro activity of the anti-CD11a IgGX-CatB-LXR agonist was evaluated using an LXR-driven luciferase stably incorporated into THP-1 and HepG2 cells. This vector encodes the firefly luciferase reporter gene under the control of a CMV promoter and tandem repeats of the LXR-α transcriptional response element. […] Cells were then treated with ONE-Glo and luminescence was read on an Envision plate reader.
(§2) THP-1 cells and HepG2 cells (ATCC) were seeded at 0.6×10^6 cells/well in Opti-MEM media in a 6-well plate and allowed to incubate overnight at 37° C. Afterwards, 50 μL of Cignal lenti LXR-α luciferase reporter (cat no: CLS-7041L, Qiagen) was added to the wells with gentle mixing. After 48 h, the media was changed to completed growth media that was supplemented with 1 μg/mL puromycin. After 24 h, positively transfected cells were cultured for one week in puromycin-containing media.

[2] = tested on: LXR-α transcriptional response element; assay: In vitro LXR transactivation (luciferase reporter) assay in HepG2 cells; format: cell-based; settings: 24 hours, presence or absence of 10% human AB serum
Method: as §1, §2

[3] = molecular target: T3, CD11a (alpha-chain component of lymphocyte function-associated antigen 1, LFA-1) on human THP-1 … (human, UniProt P20701 26-1170); assay: flow cytometry on THP-1 cells in the presence of Fc block
T3 construct: whole, on cells; Endogenous on THP-1 cells, where it stands with its partner chain in LFA-1; also called LFA-1 alpha chain
Method: Cells were incubated either with 2 nM of the dye-conjugated antibodies or with increasing concentrations of antibody (0-50 nM, right) for 1 h at 4° C. in the presence of Fc block (Human Fc block, BD Biosciences).
Because monocytes/macrophages have Fcγ receptors, the binding in the presence of an Fc blocking reagent was also examined (BD biosciences). […] Furthermore, binding of anti-Her2 to THP-1 cells at different concentrations, with or without Fc block treatment was performed (FIG. 9B).

T3 sequence (P20701 26-1170): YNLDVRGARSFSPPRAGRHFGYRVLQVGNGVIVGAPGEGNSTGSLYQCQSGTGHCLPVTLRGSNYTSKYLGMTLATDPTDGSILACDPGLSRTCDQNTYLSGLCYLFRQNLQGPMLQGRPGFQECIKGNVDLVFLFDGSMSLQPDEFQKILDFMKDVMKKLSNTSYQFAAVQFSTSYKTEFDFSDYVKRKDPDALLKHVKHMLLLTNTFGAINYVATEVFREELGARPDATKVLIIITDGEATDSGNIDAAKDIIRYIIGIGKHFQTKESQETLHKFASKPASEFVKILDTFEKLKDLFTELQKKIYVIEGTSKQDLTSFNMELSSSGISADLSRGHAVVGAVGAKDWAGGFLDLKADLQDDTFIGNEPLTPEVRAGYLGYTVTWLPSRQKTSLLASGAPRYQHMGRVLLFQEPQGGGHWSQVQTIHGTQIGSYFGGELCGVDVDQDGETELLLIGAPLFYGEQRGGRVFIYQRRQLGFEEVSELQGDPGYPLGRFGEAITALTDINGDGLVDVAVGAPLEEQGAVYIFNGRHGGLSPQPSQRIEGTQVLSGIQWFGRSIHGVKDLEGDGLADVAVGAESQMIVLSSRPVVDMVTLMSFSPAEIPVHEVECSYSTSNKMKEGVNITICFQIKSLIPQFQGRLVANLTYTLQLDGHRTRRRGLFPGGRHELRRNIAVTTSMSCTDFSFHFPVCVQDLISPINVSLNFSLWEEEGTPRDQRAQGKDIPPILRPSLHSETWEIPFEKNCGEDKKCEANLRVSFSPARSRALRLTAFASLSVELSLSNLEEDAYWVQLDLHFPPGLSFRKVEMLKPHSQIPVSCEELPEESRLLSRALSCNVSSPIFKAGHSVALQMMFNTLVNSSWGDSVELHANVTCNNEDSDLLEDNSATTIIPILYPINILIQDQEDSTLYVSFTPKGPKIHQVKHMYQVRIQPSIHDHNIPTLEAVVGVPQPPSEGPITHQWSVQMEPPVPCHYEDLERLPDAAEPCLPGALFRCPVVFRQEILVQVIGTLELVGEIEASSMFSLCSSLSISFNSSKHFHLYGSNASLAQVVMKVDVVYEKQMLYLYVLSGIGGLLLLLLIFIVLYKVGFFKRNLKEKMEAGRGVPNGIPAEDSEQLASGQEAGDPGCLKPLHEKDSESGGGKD

Molecule: O=C(O)Cc1cccc(OCCCN(Cc2cccc(C(F)(F)F)c2Cl)CC(c2ccccc2)c2ccccc2)c1 [compound 1, GW3965, reference compound]
EC50 (LXR-α): 1.1 nM | EC50 (LXR-β): 0.5 nM

B1: anti-CD11a A122pAcF IgG conjugated to Alexa Fluor 488 (anti-CD11a IgGX-AF488) (antibody, V domains shown)
VH: EVQLVESGGGLVQPGGSLRLSCAASGYSFTGHWMNWVRQAPGKGLEWVGMIHPSDSETRYNQKFKDRFTISVDKSKNTLYLQMNSLRAEDTAVYYCARGIYFYGTTYFDYWGQGTLVTVSS
VL: DIQMTQSPSSLSASVGDRVTITCRASKTISKYLAWYQQKPGKAPKLLIYSGSTLQSGVPSRFSGSGSGTDFTLTISSLQPEDFATYYCQQHNEYPLTFGQGTKVEIKR
modifications: para-acetylphenylalanine (pAcF) at position A122 (the X in SEQ ID NO 10), oxime-linked to aminooxy-Alexa Fluor 488
notes: Humanized monoclonal anti-CD11a IgG made in CHO cells; The unnatural amino acid pAcF sits at heavy chain position A122; also called anti-CD11a pAcF IgGX
Kd [3]: ~0.5 nM

Continued, in another order:

EC50 [1]: 79 ± 1.1 nM
Molecule: O=S(=O)(c1ccccc1)N(CC(F)(F)F)c1ccc(C(O)(C(F)(F)F)C(F)(F)F)cc1 [compound 2, T0901317]
LXR activation in HepG2 cells [2]: equipotent in these cells relative to THP-1

EC50 (LXR-α): 1.5 nM | EC50 (LXR-β): 12 nM
Molecule: CCc1cnc2c(C(F)(F)F)cccc2c1-c1cccc(Oc2cccc(S(=O)(=O)N(C)CCN)c2)c1 [compound 3]

Reference: patent US20160324981A1, “LIVER X RECEPTOR AGONISTS AND USES THEREOF” (The California Institute for Biomedical Research, priority 2015, published 2016)
